Data taken from PMC4160910 (European journal of medicinal chemistry, 2014).

Key:
[1] = tested on: cultured adult S. japonicum worms; details: ref [14],[20]; cited from earlier work
[2] = tested on: cultured adult S. haematobium worms; details: ref [14],[20]; cited from earlier work
all stages of S. mansoni = details: ref [14],[20]; cited from earlier work
[3] = tested on: adult Schistosoma mansoni worms; assay: Worm contraction of cultured adult worms; assay type: cell-based; details: after overnight culture with compound, 10 and 50 µM
[4] = tested on: adult Schistosoma mansoni worms; assay: Worm killing of cultured adult worms, monitored over 144 hrs; assay type: cell-based; details: at the concentrations tested (10 and 50 µM)

| SMILES | Activity against cultured adult S. japonicum worms [1] | Activity against cultured adult S. haematobium worms [2] | Activity against all stages of S. mansoni (all stages of S. mansoni) | Time for worms to return to normal length [3] [days] | Time at which worms begin to die after compound is removed from culture media [4] [days] |
| --- | --- | --- | --- | --- | --- |
| N#Cc1c(-c2ccccc2)no[n+]1[O-] [Compound 2, 4-phenylfuroxan-3-carbonitrile] | active | active | active | – | – |
| O=C(C1CCCCC1)N1CC(=O)N2CCc3ccccc3C2C1 (centres unmarked) [PZQ, 2-(cyclohexylcarbonyl)-1,2,3,6,7,11b-hexahydro-4H-pyrazino[2,1-a]isoquinolin-4-one] | – | – | – | > 2 | 4 to 5 |
